# In patent EP0736302A2, “Protease inhibitors, a DNA construct for the expression of a protease and a process for measuring proteases and/or protease inhibitors” (Stichting REGA V.Z.W., priority 1995, dated 1996):
# “Also recorded” adds a separate entry of the source. Counter-ions that a name gives are not always drawn.
# Tests used:
# [1] = molecular target: T1, gelatinase B from neutrophils (Homo sapiens, UniProt P14780); experiment: gelatinase microtiter plate assay (digestion of biotinylated gelatin, inhibition factor); type: biochemical; parameters: endogenous in cells; host or cells: human neutrophils stimulated with lipopolysaccharide; conditioned medium; conditions: crude neutrophil gelatinase B, '-' = no inhibitory activity
# Method: The measurement of gelatinase activity was based on the detection of non-degraded biotinylated gelatin with a streptavidin-peroxidase conjugate. This test is based on the biotin-avidin method described by Sorbi et al. (25) but modified to a one plate assay (schematically represented in Fig. 1.). Gelatin (1mg/ml) was dissolved in 0.1 M sodium bicarbonate pH 8.3 by heating to 40°C. Biotin-N-hydroxysuccinimide ester was dissolved in dimethylsulfoxide (Me2SO) and was added to the gelatin in a 15-fold molar excess. The mixture was allowed to react overnight at 4°C and the biotinylated gelatin was then dialyzed against phosphate buffered saline (PBS). Neutrophil granulocyte (Neu) medium was collected from human neutrophils after stimulation with lipopolysaccharide (1µg/ml) overnight at 37°C in Minimal Essential Medium. Cells were removed by 10 min centrifugation at 1000 g. Purified gelatinase was obtained by one-step affinity chromatography of neutrophil medium on a gelatin-sepharose column as described (8).
# Modified flat bottom 96-well ELISA plates were coated overnight with 0.5 µg/ml avidin in distilled water. The plates were then blocked with 0.3% bovine serum albumin (BSA, Sigma) in PBS for 1 hour at 37°C. Biotinylated gelatin was diluted to 50 µg/ml and 100µl was added to the avidin-coated wells. After incubation for one hour at 20°C, the plate was rinsed with PBS. Medium containing the secreted gelatinases from human neutrophils (dilution range 1/3-1/3^11) and the inhibitors were diluted in incubation buffer (50 mM Tris-HCl pH 7.5, 10 mM CaCl2, 0.02% (W/V) NaN3, 1% (V/V) Triton X-100) and 100 µl of each were mixed. 190 µl of the mixture was added to the gelatin-coated plates and allowed to digest the gelatin overnight at 37°C. The plates were then washed with PBS and each well was incubated with 100 µl peroxidase-conjugated-streptavidin at a 1:2000 dilution for 1 hour at 37°C. After rinsing the plate, the ABTS substrate was added (0.5 mg/ml solution containing 0.1 M citric acid, 0.2 M Na2HPO4, pH 4.3, 0.07 µl/ml 30% H2O2) and the optical density was read at 405 nm after 10 min. incubation at room temperature.
# Gelatin is biotinylated and bound to avidin-coated microtiter plates. By addition of gelatinases the number of free biotin groups decreases and proportionally less streptavidin-peroxidase is bound to the residual substrate. Bound streptavidin-peroxidase activity is measured spectrophotometrically by reaction of peroxide with ABTS. Inhibition of gelatinase is obtained by the addition of inhibitor to a known amount of gelatinase prior to application to the plates. The peroxidase activity increases proportionally with the inhibitory activity.
# The titration curves of gelatinase inhibition were always related to a blanc curve and this for enzyme concentrations within the slope of the curve (vertical dotted lines Fig. 3). The decrease in enzyme activity to which the inhibitor-incubated sample corresponded was defined as the inhibition factor (IF).
# The titration curves of gelatinase inhibition by tetracyclines were always related to a blanc curve and this for enzyme concentrations within the slope of the curve (vertical dotted lines Fig. 3). The decrease in enzyme activity to which the tetracycline incubated sample corresponded was defined as the inhibition factor (IF).
# [2] = molecular target: T1, gelatinase B from neutrophils; experiment: quantitative gelatin zymography with inhibitor in the developing buffer; type: biochemical; parameters: A standard preparation of gelatinase B from neutrophils was repetitiously loaded; endogenous in cells; host or cells: human neutrophils; conditions: increasing amounts of inhibitor in developing buffer (Fig. 4)
# Method: Quantitative zymography was performed as described (7,8). Briefly, 40 µl of loading buffer was added to 40 µl of each sample and applied on 7.5% polyacrylamide gels which had been co-polymerised with 0.1% (w/v) gelatin. Stacking gels contained 5% polyacrylamide. The gels were run at 4°C for 16h at 90V. The gels were then incubated in washing buffer (50 mM Tris-HCl pH 7.5, 10mM CaCl2, O.O2% (W/V) NaN3, 2.5% (v/v) Triton X-100) at room temperature, 2x20 min to remove sodium dodecyl sulfate and overnight in developing buffer (50 mM Tris-HCl pH 7.5, 10mM CaCl2, O.O2% (w/v) NaN3, 1% (v/v) Triton X-100) at 37°C. The gels were then stained in Coomassie brilliant blue R-250 and destained in methanol/acetic acid. The sites of gelatinase activity appeared as unstained bands on a blue background and were quantified by computerised image analysis through scanning densitometry with a PDI scanner (Pharmacia, Belgium) and the PDI software package. For inhibition experiments, the inhibitors were dissolved in the developing buffer at the appropriate concentration. […] The enzyme activity was developed by staining of the substrate with Coomassie blue and quantification of the substrate digestion by scanning densitometry. […] The enzyme activity was developed by staining of the substrate with Coomassie blue and quantification of the substrate digestion by scanning densitometry. […]
# Gelatinase A = molecular target: T2, Gelatinase A (Homo sapiens, UniProt P08253); experiment: zymography of cerebrospinal fluid of MS / optic neuritis patients with inhibitor; type: biochemical; conditions: CSF of MS patients, increasing concentrations (Fig. 13)
# T2 construct: Gelatinase A and B, detected by zymography in the cerebrospinal fluid of MS patients; from tissue; host or cells: cerebrospinal fluid of patients with multiple sclerosis or optic neuritis
# T2 sequence (P08253 110-660): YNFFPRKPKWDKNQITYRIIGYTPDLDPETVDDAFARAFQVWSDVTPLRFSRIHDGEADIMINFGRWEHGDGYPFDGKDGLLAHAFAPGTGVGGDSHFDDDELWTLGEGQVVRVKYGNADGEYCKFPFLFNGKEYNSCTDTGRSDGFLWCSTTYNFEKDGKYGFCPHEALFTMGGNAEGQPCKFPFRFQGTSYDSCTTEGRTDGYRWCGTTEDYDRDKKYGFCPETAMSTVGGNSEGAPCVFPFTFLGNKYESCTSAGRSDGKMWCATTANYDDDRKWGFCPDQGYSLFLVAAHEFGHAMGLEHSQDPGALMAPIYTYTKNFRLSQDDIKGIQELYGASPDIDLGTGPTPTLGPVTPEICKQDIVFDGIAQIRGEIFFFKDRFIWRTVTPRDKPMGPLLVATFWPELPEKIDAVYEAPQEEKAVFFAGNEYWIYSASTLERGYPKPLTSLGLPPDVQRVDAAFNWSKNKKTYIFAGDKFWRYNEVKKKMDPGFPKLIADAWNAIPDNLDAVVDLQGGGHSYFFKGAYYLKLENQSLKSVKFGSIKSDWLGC
# Method: (§1) Quantitative zymography was performed as described (7,8). Briefly, 40 µl of loading buffer was added to 40 µl of each sample and applied on 7.5% polyacrylamide gels which had been co-polymerised with 0.1% (w/v) gelatin. Stacking gels contained 5% polyacrylamide. The gels were run at 4°C for 16h at 90V. The gels were then incubated in washing buffer (50 mM Tris-HCl pH 7.5, 10mM CaCl2, O.O2% (W/V) NaN3, 2.5% (v/v) Triton X-100) at room temperature, 2x20 min to remove sodium dodecyl sulfate and overnight in developing buffer (50 mM Tris-HCl pH 7.5, 10mM CaCl2, O.O2% (w/v) NaN3, 1% (v/v) Triton X-100) at 37°C. […] The sites of gelatinase activity appeared as unstained bands on a blue background and were quantified by computerised image analysis through scanning densitometry with a PDI scanner (Pharmacia, Belgium) and the PDI software package. […]
# (§2) Similar results were obtained when pure preparations of gelatinase B were tested or when gelatinase B was measured in the presence of D-penicillamine in body fluids or cell supernatants.
# (§3) Figure 13. […] Gelatinase A (---) and B(_) activities in the CSF were measured by zymography in the absence or the presence of increasing concentrations of D-penicillamine. The scanning indices for each patient are calculated at the residual activity in the presence of inhibitor versus the activity without inhibitor. […]
# Gelatinase B [3] = molecular target: T3, Gelatinase B (Homo sapiens, UniProt P14780); experiment: as above; type: biochemical; conditions: CSF of MS patients, increasing concentrations (Fig. 13)
# T3 construct: Gelatinase A and B, detected by zymography in the cerebrospinal fluid of MS patients; from tissue; host or cells: cerebrospinal fluid of patients with multiple sclerosis or optic neuritis
# Method: as §1, §2, §3
# gelatinase B [4] = experiment: inhibition of homogeneous enzyme (ID50); type: biochemical
# [5] = tested on: human monocytic cell line THP-1; experiment: cellular gelatinase B protein and mRNA production (northern blot, zymography); type: cell-based; conditions: THP-1, LPS 1µg/ml, retinoic acid 100nM or untreated; DPEN 50 µg/ml; 16 h (Fig. 14)
# Method: Figure 14. […] Cultures of the human monocytic cell line THP-1 were stimulated with lipopolysaccharide (LPS, 1µg/ml), retinoic acid (RA, 100nM) or left untreated (CO) in the presence or absence of D-penicillamine (DPEN, 50 µg/ml). After 16 h total RNA was extracted and gelatinase B mRNA was measured by northern blot analysis with a human probe (41) (a). Gelatinase B protein in the cell culture fluids was assayed by zymographic analysis on gelatin substrate gels (b).
# Biozzi AB/H mice = experiment: chronic relapsing experimental allergic encephalomyelitis; type: in vivo; conditions: 750 µg three times weekly from day 22 onwards, after full-blown disease (Fig. 16)
# SJL mice = experiment: acute (hyperacute) experimental allergic encephalomyelitis; conditions: intraperitoneally, equivalent of 27 to 375 µg per mouse daily (Fig. 15)
# Method: In both hind paws 50µl of this emulsion was injected on day 0. On day 0 and 2, 50µl B.pertussis (200x10^9 bacteria/ml) were injected intraveneously. […] The control group received injections with 0.9% NaCl, used as excipiens. The animals were daily monitored and the disease and mortality were scored.).
# [6] = tetracycline concentration 1.67 mg/ml
# [7] = tetracycline concentration 3.33 mg/ml
# [8] = tetracycline concentration 0,83 mg/ml
# T1 sequence (P14780 94-707): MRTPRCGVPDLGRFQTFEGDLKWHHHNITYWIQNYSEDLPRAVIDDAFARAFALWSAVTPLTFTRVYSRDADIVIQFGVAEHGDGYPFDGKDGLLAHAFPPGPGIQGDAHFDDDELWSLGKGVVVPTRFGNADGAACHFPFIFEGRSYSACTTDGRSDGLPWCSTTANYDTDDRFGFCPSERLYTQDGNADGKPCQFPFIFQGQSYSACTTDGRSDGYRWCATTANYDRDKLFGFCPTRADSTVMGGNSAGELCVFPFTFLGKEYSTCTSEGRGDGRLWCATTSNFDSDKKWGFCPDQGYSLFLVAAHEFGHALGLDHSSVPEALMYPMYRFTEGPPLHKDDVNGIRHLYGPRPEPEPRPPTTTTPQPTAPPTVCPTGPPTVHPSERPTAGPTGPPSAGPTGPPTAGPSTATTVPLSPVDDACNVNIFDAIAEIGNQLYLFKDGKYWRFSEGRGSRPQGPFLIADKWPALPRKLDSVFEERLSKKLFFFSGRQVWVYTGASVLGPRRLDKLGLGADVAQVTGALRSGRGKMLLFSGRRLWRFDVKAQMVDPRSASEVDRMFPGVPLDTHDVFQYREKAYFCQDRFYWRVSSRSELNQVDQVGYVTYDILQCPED
# T3 sequence (P14780 94-707): as above
"Inhibition factor (IF) [1, 6]","Inhibition factor (IF) [1, 7]",Compound,other results
3,8,CN(C)c1ccc(O)c2c1C[C@H]1C[C@H]3[C@H](N(C)C)C(O)=C(C(N)=O)C(=O)[C@@]3(O)C(O)=C1C2=O [minocycline HCl],inhibition of gelatinase B on zymography [2]: inhibits gelatinase B in a dose-dependent way
27,45,CN(C)[C@@H]1C(O)=C(C(N)=O)C(=O)[C@@]2(O)C(O)=C3C(=O)c4c(O)ccc(Cl)c4[C@@](C)(O)[C@H]3C[C@@H]12 [chlortetracycline HCl],"Inhibition factor (IF) [1, 8]: 9"
3,9,α-apooxytetracycline base,–
–,3,CN(C)c1ccc(O)c2c1C[C@H]1C[C@H]3[C@@H](N(C)C)C(O)=C(C(N)=O)C(=O)[C@@]3(O)C(O)=C1C2=O [4-epiminocycline HCl],–
–,precipitation,7-aminominocycline HCl,–
–,–,CC(C)(S)[C@@H](N)C(=O)O [D-penicillamine],"inhibition of Gelatinase A in cerebrospinal fluid (Gelatinase A): inhibited in a dose-dependent way; inhibition of Gelatinase B in cerebrospinal fluid (Gelatinase B [3]): inhibited in a dose-dependent way; ID50 (gelatinase B [4]): 3 µg/mL; spontaneous and induced levels of gelatinase B protein and mRNA [5]: remained constant; disease recurrencies (mean clinical score), chronic relapsing EAE (Biozzi AB/H mice): abrogated the disease recurrencies; development of disease symptoms (mean disability index), acute EAE (SJL mice): complete blockage; also recorded: inhibits in a dose-dependent way the development of disease symptoms"
–,precipitation,Cc1c2c(c(O)c3c(O)cccc13)C(=O)[C@]1(O)C(=O)C(C(N)=O)=C(O)[C@H](N(C)C)[C@@H]1C2 [4-epianhydrotetracycline HCl],–
–,3,β-apooxytetracycline base,–
5,8,CN(C)[C@@H]1C(O)=C(C(N)=O)C(=O)[C@@]2(O)C(O)=C3C(=O)c4c(O)cccc4C[C@H]3C[C@@H]12 [6-deoxy-6-demethyltetracycline HCl],"Inhibition factor (IF) [1, 8]: 3"
–,precipitation,CN(C)[C@H]1C(O)=C(C(N)=O)C(=O)[C@@]2(O)C(O)=C3C(=O)c4c(O)ccc(Cl)c4[C@@](C)(O)[C@H]3C[C@@H]12 [4-epichlortetracycline HCl],–
3,–,4-epitetracycline HCl,–
8,27,C=C1c2cccc(O)c2C(=O)C2=C(O)[C@]3(O)C(=O)C(C(N)=O)=C(O)[C@@H](N(C)C)[C@@H]3[C@@H](O)[C@H]12 [metacycline HCl],"Inhibition factor (IF) [1, 8]: 3"

Compound,"Inhibition factor (IF) [1, 6]","Inhibition factor (IF) [1, 7]",other results
CN(C)[C@@H]1C(O)=C(C(N)=O)C(=O)[C@@]2(O)C(O)=C3C(=O)c4c(O)cccc4[C@@](C)(O)[C@H]3C[C@@H]12 [tetracycline HCl],3,8,–
CN(C)[C@@H]1C(=O)C(C(N)=O)=C(O)[C@@]2(O)C(=O)C[C@@H]([C@]3(C)OC(=O)c4c(O)ccc(Cl)c43)C[C@@H]12 [isochlortetracycline HCl],–,3,–
